From ChEMBL document CHEMBL1201862, “PubChem BioAssay data set” (2004)
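96-well plates; 48 h exposure; 5 concentrations. Endpoints by linear interpolation between flanking doses. Not reached: highest tested concentration assigned. At the GI50, growth is halved.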 Active and inactive are the calls of the source. Rule as the data show it: active = GI50 up to about 1.1 µM and inactive = higher.

Experiments:
Experiment in all cases: NCI anticancer screen, dose series, 48 h
[1] = test system: OVCAR-4
[2] = test system: HCT-116
[3] = test system: SNB-78
[4] = test system: UACC-62
[5] = test system: KM12
[6] = test system: OVCAR-5
[7] = test system: DLD-1
[8] = test system: EKVX
[9] = test system: SF-268
[10] = test system: SR
[11] = test system: XF498
[12] = test system: RXF 393
[13] = test system: SF-295
[14] = test system: HOP-18

Measured: GI50

CCCCCCCCCCCCCCCc1nnc(S)[nH]1
inactive: [1] 46.1 µM | [2] > 100 µM | [3] > 100 µM | [4] 97.9 µM | [5] > 100 µM | [6] > 100 µM | [7] > 10 µM | [8] > 100 µM | [9] > 100 µM | [10] 29.6 µM | [11] > 100 µM | [12] > 100 µM

CC1(C)OC[C@H](C(=N)OCc2ccccc2)O1
inactive: [1] > 100 µM | [2] > 100 µM | [3] > 100 µM | [4] > 100 µM | [5] > 100 µM | [6] > 100 µM | [13] > 100 µM | [7] > 100 µM | [8] > 100 µM | [9] > 100 µM | [10] > 100 µM | [11] > 100 µM | [12] > 100 µM

Nc1c(S(=O)(=O)O)cc(S(=O)(=O)O)c2ccc(/N=N/c3ccc(/C=C/c4ccc(/N=N/c5ccc6c(S(=O)(=O)O)cc(S(=O)(=O)O)c(N)c6c5O)cc4S(=O)(=O)O)c(S(=O)(=O)O)c3)c(O)c12
inactive: [1] > 57.9 µM | [2] > 100 µM | [3] > 83.4 µM | [4] > 100 µM | [5] > 100 µM | [6] 59.4 µM | [13] > 100 µM | [14] > 100 µM | [7] > 100 µM | [8] > 100 µM | [9] > 100 µM | [11] > 46.6 µM | [12] > 85.1 µM

O=C(NN1C(=O)CSC1c1ccc(C(F)(F)F)cc1)c1ccncc1 (centres undefined)
inactive: [1] > 100 µM | [2] > 100 µM | [3] > 31.6 µM | [4] > 100 µM | [5] > 100 µM | [6] > 100 µM | [13] > 100 µM | [14] > 100 µM | [7] > 100 µM | [8] > 100 µM | [9] > 100 µM | [11] > 100 µM | [12] 97.3 µM

N/C(=N\O)N/N=C/c1ncccc1O
inactive: [1] 18.1 µM | [2] 11.8 µM | [3] > 88.5 µM | [4] 10.3 µM | [5] 5.81 µM | [6] 31.5 µM | [13] 10.6 µM | [14] 22.8 µM | [7] 5.65 µM | [8] 22.1 µM | [9] 22.7 µM | [11] 12.4 µM | [12] 38.2 µM

CCOC(=O)CCc1c(C)c2c(O)cc(O)cc2oc1=O
inactive: [1] > 100 µM | [2] 15.8 µM | [3] > 100 µM | [4] > 100 µM | [5] > 100 µM | [6] > 100 µM | [13] > 68.9 µM | [14] > 80.9 µM | [7] > 100 µM | [8] > 100 µM | [9] > 100 µM | [11] > 100 µM | [12] > 78.9 µM

CCOC(=O)/C=C1/C(CCCOCc2ccccc2)C2CCCC23CC2(CCN13)OCCO2 (centres undefined)
inactive: [1] 24.3 µM | [3] 25.9 µM | [4] 15.2 µM | [5] 22.3 µM | [6] 44 µM | [13] 23.6 µM | [14] 21.3 µM | [7] 19 µM | [8] 34.8 µM | [9] 42 µM | [11] 12.3 µM | [12] 6.32 µM
